# Source: patent publication US20260092071A1, “COMPOUNDS AND COMPOSITIONS AS SMARCA2/4 DEGRADERS AND USES THEREOF” (REGENTS OF THE UNIVERSITY OF MICHIGAN, priority 2022, published 2026)
# Like-named read-outs stand apart in the source and are kept apart here.
# Legend:
# SMARCA2 = SMARCA2 (Homo sapiens, UniProt P51531); experiment: HiBit assay in engineered HT1080 CRISPR knock-in cell, 6 hrs (B series), SMARCA2; format: cell-based; settings: 6 hrs incubation; for DC50: HT1080 CRISPR knock-in cells, read-out: SMARC A2 HT1080 HiBit DC50; for Dmax: HT-1080, HT1080 CRISPR knock-in cells, read-out: SMARC A2 HT1080 HiBit Dmax (%)
# SMARCA2, sequence (P51531 whole entry): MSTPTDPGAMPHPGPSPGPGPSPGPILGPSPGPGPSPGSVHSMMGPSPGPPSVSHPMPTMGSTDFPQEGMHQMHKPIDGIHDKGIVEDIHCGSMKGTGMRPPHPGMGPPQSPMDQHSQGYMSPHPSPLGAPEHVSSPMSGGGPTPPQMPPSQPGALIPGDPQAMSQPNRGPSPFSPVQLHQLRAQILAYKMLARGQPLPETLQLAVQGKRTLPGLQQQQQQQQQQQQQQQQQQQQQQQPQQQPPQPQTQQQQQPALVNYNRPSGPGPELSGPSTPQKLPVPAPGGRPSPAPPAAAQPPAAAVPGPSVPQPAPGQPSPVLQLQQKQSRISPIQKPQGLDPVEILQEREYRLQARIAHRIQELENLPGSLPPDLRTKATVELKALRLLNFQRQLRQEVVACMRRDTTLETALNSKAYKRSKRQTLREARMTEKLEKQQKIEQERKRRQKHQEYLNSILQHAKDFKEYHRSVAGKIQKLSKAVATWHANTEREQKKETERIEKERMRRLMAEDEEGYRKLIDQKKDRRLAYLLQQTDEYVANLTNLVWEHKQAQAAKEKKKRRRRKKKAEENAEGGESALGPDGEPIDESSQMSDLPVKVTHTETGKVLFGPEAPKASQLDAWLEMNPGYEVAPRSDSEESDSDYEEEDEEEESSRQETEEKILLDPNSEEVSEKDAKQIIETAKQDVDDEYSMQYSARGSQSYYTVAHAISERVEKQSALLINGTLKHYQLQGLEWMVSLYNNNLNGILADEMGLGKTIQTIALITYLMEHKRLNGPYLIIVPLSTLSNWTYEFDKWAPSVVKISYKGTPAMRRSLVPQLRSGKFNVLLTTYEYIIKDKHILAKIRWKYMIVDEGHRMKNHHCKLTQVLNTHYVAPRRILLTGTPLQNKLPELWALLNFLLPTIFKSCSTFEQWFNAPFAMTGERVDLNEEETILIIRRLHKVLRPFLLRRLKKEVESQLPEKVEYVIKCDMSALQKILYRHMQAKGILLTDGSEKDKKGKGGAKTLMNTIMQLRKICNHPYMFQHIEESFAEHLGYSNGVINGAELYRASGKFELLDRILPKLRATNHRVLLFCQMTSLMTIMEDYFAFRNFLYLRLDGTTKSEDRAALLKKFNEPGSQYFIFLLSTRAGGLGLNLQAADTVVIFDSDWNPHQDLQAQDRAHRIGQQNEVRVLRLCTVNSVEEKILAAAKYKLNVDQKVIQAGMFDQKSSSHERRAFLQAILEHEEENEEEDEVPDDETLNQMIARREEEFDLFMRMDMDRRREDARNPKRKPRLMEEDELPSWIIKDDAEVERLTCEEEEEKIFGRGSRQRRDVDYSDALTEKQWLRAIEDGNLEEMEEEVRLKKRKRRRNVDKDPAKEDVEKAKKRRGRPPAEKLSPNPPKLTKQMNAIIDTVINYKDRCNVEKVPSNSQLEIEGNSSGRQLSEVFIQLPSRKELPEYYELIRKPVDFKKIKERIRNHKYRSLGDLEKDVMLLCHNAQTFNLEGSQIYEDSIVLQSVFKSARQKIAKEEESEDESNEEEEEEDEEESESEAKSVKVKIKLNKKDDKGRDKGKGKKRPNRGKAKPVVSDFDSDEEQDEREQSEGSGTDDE
# How it was run: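 Compounds were dispensed first, then HT1080 knock-in cells added and incubated for 6 hrs at 37° C. Next, detection reagent containing LgBiT and lytic substrate was added. Plates were shaken 10 min and centrifuged, and luminescence was measured.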
# SMARCA4 = SMARCA4 (Homo sapiens, UniProt P51532); experiment: HiBit assay in engineered HT1080 CRISPR knock-in cell, 6 hrs (B series), SMARCA4; format: cell-based; settings: for DC50: HT1080 CRISPR knock-in cells, read-out: SMARC A4 HT1080 HiBit DC50
# SMARCA4, sequence (P51532 whole entry): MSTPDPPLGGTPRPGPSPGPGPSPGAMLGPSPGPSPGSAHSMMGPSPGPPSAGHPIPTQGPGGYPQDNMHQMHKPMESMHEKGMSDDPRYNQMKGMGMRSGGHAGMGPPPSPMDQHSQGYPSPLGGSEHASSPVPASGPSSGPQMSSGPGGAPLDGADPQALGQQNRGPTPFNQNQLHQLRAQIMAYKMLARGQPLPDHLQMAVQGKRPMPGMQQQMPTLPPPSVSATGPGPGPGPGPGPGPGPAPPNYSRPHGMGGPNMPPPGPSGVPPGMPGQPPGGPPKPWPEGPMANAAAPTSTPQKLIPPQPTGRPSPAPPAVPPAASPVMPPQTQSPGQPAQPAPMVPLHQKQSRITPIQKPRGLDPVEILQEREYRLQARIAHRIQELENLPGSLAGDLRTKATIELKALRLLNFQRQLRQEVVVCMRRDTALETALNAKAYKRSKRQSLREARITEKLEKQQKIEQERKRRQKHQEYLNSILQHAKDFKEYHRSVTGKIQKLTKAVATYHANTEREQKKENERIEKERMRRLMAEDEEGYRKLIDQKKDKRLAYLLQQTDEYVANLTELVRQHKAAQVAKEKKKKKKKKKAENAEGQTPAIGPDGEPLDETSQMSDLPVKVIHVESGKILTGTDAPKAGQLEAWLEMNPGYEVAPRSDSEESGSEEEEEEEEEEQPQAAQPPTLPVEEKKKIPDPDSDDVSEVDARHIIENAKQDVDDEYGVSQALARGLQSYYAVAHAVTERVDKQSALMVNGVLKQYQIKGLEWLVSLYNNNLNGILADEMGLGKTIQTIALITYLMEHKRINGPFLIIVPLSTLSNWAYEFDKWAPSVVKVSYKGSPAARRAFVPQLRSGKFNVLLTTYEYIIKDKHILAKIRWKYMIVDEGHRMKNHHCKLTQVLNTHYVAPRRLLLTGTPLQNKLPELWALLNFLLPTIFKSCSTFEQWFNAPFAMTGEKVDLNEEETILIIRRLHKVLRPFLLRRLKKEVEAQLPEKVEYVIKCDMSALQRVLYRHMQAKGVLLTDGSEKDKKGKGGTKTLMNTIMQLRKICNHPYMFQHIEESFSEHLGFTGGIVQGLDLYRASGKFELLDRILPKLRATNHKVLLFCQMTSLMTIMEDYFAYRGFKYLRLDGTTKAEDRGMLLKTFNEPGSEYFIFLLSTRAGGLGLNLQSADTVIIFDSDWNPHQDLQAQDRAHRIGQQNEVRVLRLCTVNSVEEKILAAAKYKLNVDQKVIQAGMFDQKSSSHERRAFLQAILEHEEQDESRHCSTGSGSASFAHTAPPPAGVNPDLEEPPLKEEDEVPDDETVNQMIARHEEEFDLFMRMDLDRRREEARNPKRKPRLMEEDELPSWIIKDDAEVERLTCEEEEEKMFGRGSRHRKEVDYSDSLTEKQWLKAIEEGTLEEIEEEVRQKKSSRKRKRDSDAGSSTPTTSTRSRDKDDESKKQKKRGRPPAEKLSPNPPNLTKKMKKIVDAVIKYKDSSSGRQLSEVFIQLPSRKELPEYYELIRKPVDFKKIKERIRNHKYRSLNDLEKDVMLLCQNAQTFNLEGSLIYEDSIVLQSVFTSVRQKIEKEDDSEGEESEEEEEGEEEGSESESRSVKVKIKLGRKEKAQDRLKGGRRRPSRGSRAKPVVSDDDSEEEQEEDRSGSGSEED
# How it was run: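 Protein abundance is measured in HiBiT-tagged HT1080 CRISPR knock-in cells after a 6 hr compound treatment (0.1% DMSO) by lytic Nano-Glo HiBiT luminescence.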
# [1] = HT-1080, HT1080 CRISPR knock-in cells, 6 hrs incubation, read-out: SMARC A4 HT1080 HiBit Dmax(%)
DC50 (SMARCA2) [nM],Dmax (SMARCA2) [%],DC50 (SMARCA4; 6 hrs incubation) [nM],Dmax (SMARCA4; [1]) [%],"Dmax (SMARCA4; HT-1080, read-out: SMARC A4 HT1080 HiBit Dmax(%), HT1080 CRISPR knock-in cells, 6 hrs incubation) [%]",Compound
501 to 1000,< 50,100 to 500,< 50,,"Cc1ncsc1-c1ccc([C@H](CC(=O)NCCCN2CCC(c3ccc4c(c3)-n3c(nc(=O)c5c(Cl)cccc53)C4(C)C)CC2)NC(=O)[C@@H]2C[C@@H](O)CN2C(=O)[C@@H](NC(=O)C2(F)CC2)C(C)(C)C)cc1 [Compound B25, (2S,4R)-N-((S)-3-((3-(4-(4-chloro-7,7-dimethyl-5-oxo-5,7-dihydroindolo[1,2-a]quinazolin-10-yl)piperidin-1-yl)propyl)amino)-1-(4-(4-methylthiazol-5-yl)phenyl)-3-oxopropyl)-1-((S)-2-(1-fluorocyclopropane-1-carboxamido)-3,3-dimethylbutanoyl)-4-hydroxypyrrolidine-2-carboxamide]"
< 100,> 90,< 100,,> 90,"Cc1ncsc1-c1ccc([C@H](C)NC(=O)[C@@H]2C[C@@H](O)CN2C(=O)[C@H](C(C)C)n2cc([C@H]3CC[C@H](CN4CCC(c5ccc6c(c5)C(C)(C)c5nc(=O)c7c(Cl)cccc7n5-6)CC4)CC3)nn2)cc1 [Compound B78, (2S,4R)-1-((S)-2-(4-((1r,4S)-4-((4-(4-chloro-7,7-dimethyl-5-oxo-5,7-dihydroindolo[1,2-a]quinazolin-9-yl)piperidin-1-yl)methyl)cyclohexyl)-1H-1,2,3-triazol-1-yl)-3-methylbutanoyl)-4-hydroxy-N—((S)-1-(4-(4-methylthiazol-5-yl)phenyl)ethyl)pyrrolidine-2-carboxamide]"
< 100,70 to 90,100 to 500,< 50,,"Cc1ncsc1-c1ccc([C@H](C)NC(=O)[C@@H]2C[C@@H](O)CN2C(=O)[C@@H](NC(=O)C2CC(N3CCC(c4ccc5c(c4)C(C)(C)c4nc(=O)c6c(Cl)cccc6n4-5)CC3)C2)C(C)(C)C)cc1 (stereo partly drawn) [Compound B13, (2S,4R)-1-((2S)-2-(3-(4-(4-chloro-7,7-dimethyl-5-oxo-5,7-dihydroindolo[1,2-a]quinazolin-9-yl)piperidin-1-yl)cyclobutane-1-carboxamido)-3,3-dimethylbutanoyl)-4-hydroxy-N-((S)-1-(4-(4-methylthiazol-5-yl)phenyl)ethyl)pyrrolidine-2-carboxamide]"
< 100,> 90,100 to 500,70 to 90,,"Cc1cc(C(C(=O)N2C[C@H](O)C[C@H]2C(=O)N[C@@H](C)c2ccc(-c3scnc3C#CCOCCOCCN3CCC(c4ccc5c(c4)-n4c(nc(=O)c6c(Cl)cccc64)C5(C)C)CC3)cc2)C(C)C)on1 (stereo partly drawn) [Compound B104, (2S,4R)—N—((S)-1-(4-(4-(3-(2-(2-(4-(4-chloro-7,7-dimethyl-5-oxo-5,7-dihydroindolo[1,2-a]quinazolin-10-yl)piperidin-1-yl)ethoxy)ethoxy)prop-1-yn-1-yl)thiazol-5-yl)phenyl)ethyl)-4-hydroxy-1-(3-methyl-2-(3-methylisoxazol-5-yl)butanoyl)pyrrolidine-2-carboxamide]"
< 100,> 90,< 100,50 to 69,,"Cc1ncsc1-c1ccc([C@H](C)NC(=O)[C@@H]2C[C@@H](O)CN2C(=O)[C@@H](NC(=O)[C@H]2CC[C@H](CN3CCC(c4ccc5c(c4)C(C)(C)c4nc(=O)c6c(Cl)cccc6n4-5)CC3)CC2)C(C)(C)C)cc1 [Compound B1, (2S,4R)-1-((S)-2-((1r,4S)-4-((4-(4-chloro-7,7-dimethyl-5-oxo-5,7-dihydroindolo[1,2-a]quinazolin-9-yl)piperidin-1-yl)methyl)cyclohexane-1-carboxamido)-3,3-dimethylbutanoyl)-4-hydroxy-N—((S)-1-(4-(4-methylthiazol-5-yl)phenyl)ethyl)pyrrolidine-2-carboxamide]"
< 100,> 90,< 100,> 90,,"Cc1ncsc1-c1ccc(C(CN2CCOCC2)NC(=O)[C@@H]2C[C@@H](O)CN2C(=O)[C@@H](c2cc(O[C@H]3CC[C@H](CN4CCN(c5ccc6c(c5)-n5c(nc(=O)c7c(Cl)cccc75)C6(C)C)CC4)CC3)no2)C(C)C)cc1 (stereo partly drawn) [Compound B163, (2S,4R)-1-((R)-2-(3-(((11,4R)-4-((4-(4-chloro-7,7-dimethyl-5-oxo-5,7-dihydroindolo[1,2-a]quinazolin-10-yl)piperazin-1-yl)methyl)cyclohexyl)oxy)isoxazol-5-yl)-3-methylbutanoyl)-4-hydroxy-N-((R)-1-(4-(4-methylthiazol-5-yl)phenyl)-2-morpholinoethyl)pyrrolidine-2-carboxamide]"
< 100,> 90,< 100,> 90,,"Cc1ncsc1-c1ccc([C@H](C)NC(=O)[C@@H]2C[C@@H](O)CN2C(=O)[C@H](C(C)C)n2cc([C@H]3CC[C@H](CN4CCC(c5cccc6c5C(C)(C)c5nc(=O)c7c(Cl)cccc7n5-6)CC4)CC3)nn2)cc1 [Compound B107, (2S,4R)-1-((S)-2-(4-((1r,4S)-4-((4-(4-chloro-7,7-dimethyl-5-oxo-5,7-dihydroindolo[1,2-a]quinazolin-8-yl)piperidin-1-yl)methyl)cyclohexyl)-1H-1,2,3-triazol-1-yl)-3-methylbutanoyl)-4-hydroxy-N-((S)-1-(4-(4-methylthiazol-5-yl)phenyl)ethyl)pyrrolidine-2-carboxamide]"
< 100,70 to 90,100 to 500,< 50,,"Cc1ncsc1-c1ccc2c(c1)CC[C@@H]2NC(=O)[C@@H]1C[C@@H](O)CN1C(=O)[C@@H](n1cc([C@H]2CC[C@H](CN3CCC(c4ccc5c(c4)-n4c(nc(=O)c6c(Cl)cccc64)C5(C)C)CC3)CC2)nn1)C(C)(C)C [Compound B123, (2S,4R)-1-((S)-2-(4-((1r,4S)-4-((4-(4-chloro-7,7-dimethyl-5-oxo-5,7-dihydroindolo[1,2-a]quinazolin-10-yl)piperidin-1-yl)methyl)cyclohexyl)-1H-1,2,3-triazol-1-yl)-3,3-dimethylbutanoyl)-4-hydroxy-N-((S)-5-(4-methylthiazol-5-yl)-2,3-dihydro-1H-inden-1-yl)pyrrolidine-2-carboxamide]"
< 100,50 to 69,< 100,< 50,,"Cc1ncsc1-c1ccc([C@H](C)NC(=O)[C@@H]2C[C@@H](O)CN2C(=O)[C@@H](c2cc(OCCCn3cc(-c4ccc5c(c4)-n4c(nc(=O)c6c(Cl)cccc64)C5(C)C)cn3)no2)C(C)C)cc1 [Compound B72, (2S,4R)-1-((R)-2-(3-(3-(4-(4-chloro-7,7-dimethyl-5-oxo-5,7-dihydroindolo[1,2-a]quinazolin-10-yl)-1H-pyrazol-1-yl)propoxy)isoxazol-5-yl)-3-methylbutanoyl)-4-hydroxy-N-((S)-1-(4-(4-methylthiazol-5-yl)phenyl)ethyl)pyrrolidine-2-carboxamide]"
100 to 500,50 to 69,< 100,50 to 69,,"Cc1cc(C(C(=O)N2C[C@H](O)C[C@H]2C(=O)N[C@@H](C)c2ccc(-c3scnc3C#CCN3CCC(c4ccc5c(c4)C(C)(C)c4nc(=O)c6c(Cl)cccc6n4-5)CC3)cc2)C(C)C)on1 (stereo partly drawn) [Compound B144, (2S,4R)—N—((S)-1-(4-(4-(3-(4-(4-chloro-7,7-dimethyl-5-oxo-5,7-dihydroindolo[1,2-a]quinazolin-9-yl)piperidin-1-yl)prop-1-yn-1-yl)thiazol-5-yl)phenyl)ethyl)-4-hydroxy-1-(3-methyl-2-(3-methylisoxazol-5-yl)butanoyl)pyrrolidine-2-carboxamide]"
< 100,> 90,< 100,> 90,,"Cc1ncsc1-c1ccc([C@H](C)NC(=O)[C@@H]2C[C@@H](O)CN2C(=O)[C@@H](c2cc(N3CCC(C(=O)N4CCC(c5ccc6c(c5)C(C)(C)c5nc(=O)c7c(Cl)cccc7n5-6)CC4)CC3)no2)C(C)C)cc1 [Compound B90, (2S,4R)-1-(2-(3-(4-(4-(4-chloro-7,7-dimethyl-5-oxo-5,7-dihydroindolo[1,2-a]quinazolin-9-yl)piperidine-1-carbonyl)piperidin-1-yl)isoxazol-5-yl)-3-methylbutanoyl)-4-hydroxy-N—((S)-1-(4-(4-methylthiazol-5-yl)phenyl)ethyl)pyrrolidine-2-carboxamide]"
< 100,70 to 90,< 100,50 to 69,,"Cc1ncsc1-c1ccc([C@H](C)NC(=O)[C@@H]2C[C@@H](O)CN2C(=O)[C@@H](c2cc(OCC3(CN4CCC(c5ccc6c(c5)C(C)(C)c5nc(=O)c7c(Cl)cccc7n5-6)CC4)CC3)no2)C(C)C)cc1 [Compound B82, (2S,4R)-1-((R)-2-(3-((1-((4-(4-chloro-7,7-dimethyl-5-oxo-5,7-dihydroindolo[1,2-a]quinazolin-9-yl)piperidin-1-yl)methyl)cyclopropyl)methoxy)isoxazol-5-yl)-3-methylbutanoyl)-4-hydroxy-N-((S)-1-(4-(4-methylthiazol-5-yl)phenyl)ethyl)pyrrolidine-2-carboxamide]"
